Data published in US20150291565A1, “INDOLE COMPOUNDS AND THEIR USE AS ANTIMICROBIALS” (Memorial Sloan-Kettering Cancer Center, priority 2012, published 2015).
≈ marks a conversion by molar mass, not a printed value. Like-named read-outs stand apart in the source and are kept apart here.

Assays:
MRSA = assay: Disk diffusion assay, zone of inhibition, MRSA; type: cell-based, Staphylococcus aureus; settings: disk diffusion zone of inhibition
M. smegmatis (mc2155) = assay: Disk diffusion assay, zone of inhibition, M. smegmatis; type: cell-based; settings: disk diffusion zone of inhibition
[1] = tested on: S. aureus ATCC 29213 (MSSA); assay: Broth dilution MIC, S. aureus ATCC 29213; type: cell-based; settings: Staphylococcus aureus
[2] = tested on: S. aureus ATCC 33591 (MRSA); assay: Broth dilution MIC, S. aureus ATCC 33591; type: cell-based; settings: for MIC: Staphylococcus aureus
S. aureus BAA-39 (MDR) = assay: Broth dilution MIC, S. aureus BAA-39; type: cell-based; settings: for MIC: Staphylococcus aureus, BAA39
[3] = tested on: S. pneumoniae ATCC 6301 (PSSP); assay: Broth dilution MIC, S. pneumoniae ATCC 6301; type: cell-based; settings: Streptococcus pneumoniae
[4] = tested on: S. pneumoniae ATCC 700674 (PRSP); assay: Broth dilution MIC, S. pneumoniae ATCC 700674; type: cell-based; settings: Streptococcus pneumoniae
[5] = tested on: E. faecalis ATCC 29212 (VRE); assay: Broth dilution MIC, E. faecalis ATCC 29212; type: cell-based
[6] = tested on: E. faecium ATCC 700221 (VRE); assay: Broth dilution MIC, E. faecium ATCC 700221; type: cell-based
E. faecium CT-26 = assay: Broth dilution MIC, E. faecium CT-26; type: cell-based; settings: Enterococcus faecium
E. coli ECM 1694 = assay: Broth dilution MIC, E. coli ECM 1694; type: cell-based; settings: Escherichia coli
E. coli ATCC 25922 = assay: Broth dilution MIC, E. coli ATCC 25922; type: cell-based; settings: Escherichia coli
K. pneumoniae ATCC 13883 = assay: Broth dilution MIC, K. pneumoniae ATCC 13883; type: cell-based; settings: Klebsiella pneumoniae
K. pneumoniae ATCC 51503 = assay: Broth dilution MIC, K. pneumoniae ATCC 51503; type: cell-based; settings: Klebsiella pneumoniae
P. aeruginosa ATCC 9027 = assay: Broth dilution MIC, P. aeruginosa ATCC 9027; type: cell-based; settings: Pseudomonas aeruginosa
C. albicans ATCC 14053 = assay: Broth dilution MIC, C. albicans ATCC 14053; type: cell-based; settings: Candida albicans, ATCC14053; Table 1; range 64 down to 0.12 μg/ml
Procedure: In vitro Anti-bacterial & Anti-fungal Activity Assay: All test compounds were prepared as 6.4 mg/ml stock solutions in DMSO and further diluted according to the NCCLS M7-A6 (Page 5) document with sterile water or appropriate diluent. A working stock of 256 μg/ml was used to do 1:2 serial dilutions in 96-well plates. […] The inoculums were prepared by making a direct sterile water suspension of isolated colonies from 18 to 24 hr agar plates for all organisms (Mueller Hinton, Blood Agar or SDA plates). Each bacterial suspension was adjusted to read between 0.09 and 0.11 absorbance at 620 nm. […] These were further diluted 1/100 in appropriate broth for inoculating the 96-well plates. The C. albicans suspension was adjusted to read between 70 and 75% Transmittance at 530 nm and then diluted 1/500 in RPMI+MOPS broth. All aerobic bacterial and fungal plates were incubated for 18 hrs. at 35° C. […] Plates were read using a Beckman Automated Plate Reader at 650 nm. Readings were confirmed by visual examination of plates. (See Table 1, Table 2, Table 3, and Table 4). […] It is important to note that positive results against C. albicans are often indicative of broad spectrum antifungal activity, while negative results are not necessarily conclusory of a lack of activity against other fungus.

[7] = Table 1, range 64 down to 0.12 μg/ml, read-out: MIC S. aureus ATCC 29213
[8] = Table 2, broth dilution MIC in ug/ml, read-out: MIC S aureus ATCC 29213 MSSA
[9] = Table 1, range 64 down to 0.12 μg/ml, read-out: MIC S. aureus ATCC 33591
[10] = Table 2, broth dilution MIC in ug/ml, read-out: MIC S aureus ATCC 33591 MRSA
[11] = Table 1, range 64 down to 0.12 μg/ml, read-out: MIC S. aureus BAA-39
[12] = Table 2, broth dilution MIC in ug/ml, read-out: MIC S aureus BAA-39 MDR
[13] = ATCC6301, Table 1, range 64 down to 0.12 μg/ml, read-out: MIC S. pneumoniae ATCC 6301
[14] = ATCC6301, Table 2, broth dilution MIC in ug/ml, read-out: MIC S pneumonia ATCC 6301 PSSP
[15] = Table 1, range 64 down to 0.12 μg/ml, read-out: MIC S. pneumoniae ATCC 700674
[16] = Table 2, broth dilution MIC in ug/ml, read-out: MIC S pneumonia ATCC 700674 PRSP
[17] = Enterococcus faecalis, Table 1, range 64 down to 0.12 μg/ml, read-out: MIC E. faecalis ATCC 29212
[18] = Table 2, broth dilution MIC in ug/ml, read-out: MIC E faecalis ATCC 29212 VRE
[19] = Enterococcus faecium, Table 1, range 64 down to 0.12 μg/ml, read-out: MIC E. faecium ATCC 700221
[20] = Table 2, broth dilution MIC in ug/ml, read-out: MIC E faecium ATCC 700221 VRE
[21] = CT26, Table 1, range 64 down to 0.12 μg/ml, read-out: MIC E. faecium CT-26
[22] = CT26, Table 2, broth dilution MIC in ug/ml, read-out: MIC E faecium CT-25
[23] = ECM1694, Table 1, range 64 down to 0.12 μg/ml, read-out: MIC E. coli ECM 1694
[24] = ECM1694, Table 2, broth dilution MIC in ug/ml, read-out: MIC E. coli ECM 1693
[25] = ATCC 25921 / ATCC 25922, Table 2, broth dilution MIC in ug/ml, read-out: MIC E. coli ATCC 25921
[26] = ATCC25922, Table 1, range 64 down to 0.12 μg/ml, read-out: MIC E. coli ATCC 25922
[27] = ATCC13883, Table 1, range 64 down to 0.12 μg/ml, read-out: MIC K. pneumoniae ATCC 13883
[28] = ATCC13883, Table 2, broth dilution MIC in ug/ml, read-out: MIC K pneumonia ATCC 13883
[29] = ATCC51503, Table 1, range 64 down to 0.12 μg/ml, read-out: MIC K. pneumoniae ATCC 51503
[30] = ATCC51503, Table 2, broth dilution MIC in ug/ml, read-out: MIC K pneumonia ATCC 51503
[31] = ATCC 9026 / ATCC 9027, Table 2, broth dilution MIC in ug/ml, read-out: MIC P aeruginosa ATCC 9026
[32] = ATCC9027, Table 1, range 64 down to 0.12 μg/ml, read-out: MIC P. aeruginosa ATCC 9027

MIC [1, 7] [µg/mL]	MIC [1, 8] [µg/mL]	MIC [2, 9] [µg/mL]	MIC [2, 10] [µg/mL]	MIC (S. aureus BAA-39 (MDR); [11]) [µg/mL]	MIC (S. aureus BAA-39 (MDR); [12]) [µg/mL]	MIC [3, 13] [µg/mL]	MIC [3, 14] [µg/mL]	MIC [4, 15] [µg/mL]	MIC [4, 16] [µg/mL]	MIC [5, 17] [µg/mL]	MIC [5, 18] [µg/mL]	MIC [6, 19] [µg/mL]	MIC [6, 20] [µg/mL]	MIC (E. faecium CT-26; [21]) [µg/mL]	MIC (E. faecium CT-26; [22]) [µg/mL]	MIC (E. coli ECM 1694; [23]) [µg/mL]	MIC (E. coli ECM 1694; [24]) [µg/mL]	Structure (SMILES)	Zone Size MRSA (MRSA) [mm]	Zone Size M. smegmatis (M. smegmatis (mc2155)) [mm]	other results
8 (≈ 18.3 µM)	8 (≈ 18.3 µM)	4 (≈ 9.14 µM)	4 (≈ 9.14 µM)	4 (≈ 9.14 µM)	4 (≈ 9.14 µM)	4 (≈ 9.14 µM)	4 (≈ 9.14 µM)	16 (≈ 36.6 µM)	16 (≈ 36.6 µM)	4 (≈ 9.14 µM)	4 (≈ 9.14 µM)	1 (≈ 2.29 µM)	1 (≈ 2.29 µM)	1 (≈ 2.29 µM)	1 (≈ 2.29 µM)	1 (≈ 2.29 µM)	1 (≈ 2.29 µM)	c1cc(-c2cc3ccc(C4=NCCN4)cc3[nH]2)ccc1Nc1ccc(N2CCOCC2)cc1 [SKI-11]	11	11	MIC (E. coli ATCC 25922; [25]): 16 µg/mL (≈ 36.6 µM); MIC (E. coli ATCC 25922; [26]): 16 µg/mL (≈ 36.6 µM); MIC (K. pneumoniae ATCC 13883; [27]): > 64 µg/mL; MIC (K. pneumoniae ATCC 13883; [28]): 64 µg/mL (≈ 146 µM); MIC (K. pneumoniae ATCC 51503; [29]): > 64 µg/mL; MIC (K. pneumoniae ATCC 51503; [30]): 64 µg/mL (≈ 146 µM); MIC (P. aeruginosa ATCC 9027; [31]): 64 µg/mL (≈ 146 µM); MIC (P. aeruginosa ATCC 9027; [32]): > 64 µg/mL; MIC (C. albicans ATCC 14053): 32 µg/mL (≈ 73.1 µM)
2 (≈ 5.66 µM)	1 (≈ 2.83 µM)	1 (≈ 2.83 µM)	1 (≈ 2.83 µM)	1 (≈ 2.83 µM)	1 (≈ 2.83 µM)	≤ 0.12	0.06 (≈ 0.17 µM)	0.5 (≈ 1.41 µM)	0.5 (≈ 1.41 µM)	0.5 (≈ 1.41 µM)	0.5 (≈ 1.41 µM)	0.25 (≈ 0.707 µM)	0.25 (≈ 0.707 µM)	0.25 (≈ 0.707 µM)	0.25 (≈ 0.707 µM)	≤ 0.12	0.12 (≈ 0.34 µM)	c1cncc(Nc2ccc(-c3cc4ccc(C5=NCCN5)cc4[nH]3)cc2)c1 [SKI-4]	14	27.6	MIC ([1]; Table 3, starting at 4 μg/ml, read-out: MIC S. aureus ATCC 29213): 1 µg/mL (≈ 2.83 µM); MIC S. aureus ATCC 33591 ([2]; Table 3, starting at 4 μg/ml): 1 µg/mL (≈ 2.83 µM); MIC S. aureus BAA-39 (S. aureus BAA-39 (MDR); Table 3, starting at 4 μg/ml): 1 µg/mL (≈ 2.83 µM); MIC ([3]; ATCC6301, Table 3, starting at 4 μg/ml, read-out: MIC S. pneumoniae ATCC 6301): 0.06 µg/mL (≈ 0.17 µM); MIC ([4]; Table 3, starting at 4 μg/ml, read-out: MIC S. pneumoniae ATCC 700674): 0.5 µg/mL (≈ 1.41 µM); MIC E. faecalis ATCC 29212 ([5]; Table 3, starting at 4 μg/ml): 0.5 µg/mL (≈ 1.41 µM); MIC ([6]; Enterococcus faecium, Table 3, starting at 4 μg/ml, read-out: MIC E. faecium ATCC 700221): 0.25 µg/mL (≈ 0.707 µM); MIC (E. faecium CT-26; CT26, Table 3, starting at 4 μg/ml, read-out: MIC E. faecium CT-26): 0.25 µg/mL (≈ 0.707 µM); MIC (E. coli ECM 1694; ECM1694, Table 3, starting at 4 μg/ml, read-out: MIC E. coli ECM 1694): 0.12 µg/mL (≈ 0.34 µM); MIC (E. coli ATCC 25922; [25]): 1 µg/mL (≈ 2.83 µM); MIC (E. coli ATCC 25922; [26]): 1 µg/mL (≈ 2.83 µM); MIC (K. pneumoniae ATCC 13883; [27]): > 64 µg/mL; MIC (K. pneumoniae ATCC 13883; [28]): 64 µg/mL (≈ 181 µM); MIC (K. pneumoniae ATCC 51503; [29]): > 64 µg/mL; MIC (K. pneumoniae ATCC 51503; [30]): 64 µg/mL (≈ 181 µM); MIC (P. aeruginosa ATCC 9027; [31]): 64 µg/mL (≈ 181 µM); MIC (P. aeruginosa ATCC 9027; [32]): > 64 µg/mL; MIC (C. albicans ATCC 14053): > 64 µg/mL
> 64	64 (≈ 144 µM)	> 64	64 (≈ 144 µM)	> 64	64 (≈ 144 µM)	2 (≈ 4.51 µM)	2 (≈ 4.51 µM)	4 (≈ 9.02 µM)	4 (≈ 9.02 µM)	32 (≈ 72.1 µM)	32 (≈ 72.1 µM)	16 (≈ 36.1 µM)	16 (≈ 36.1 µM)	8 (≈ 18 µM)	8 (≈ 18 µM)	64 (≈ 144 µM)	64 (≈ 144 µM)	Nc1ccc(-c2ccc3cc(-c4ccc(Nc5ccc(C6=NCCN6)cc5)cc4)[nH]c3c2)cc1 [SKI-20]	9	8	MIC (E. coli ATCC 25922; [25]): 64 µg/mL (≈ 144 µM); MIC (E. coli ATCC 25922; [26]): > 64 µg/mL; MIC (K. pneumoniae ATCC 13883; [27]): > 64 µg/mL; MIC (K. pneumoniae ATCC 13883; [28]): 64 µg/mL (≈ 144 µM); MIC (K. pneumoniae ATCC 51503; [29]): > 64 µg/mL; MIC (K. pneumoniae ATCC 51503; [30]): 64 µg/mL (≈ 144 µM); MIC (P. aeruginosa ATCC 9027; [31]): 64 µg/mL (≈ 144 µM); MIC (P. aeruginosa ATCC 9027; [32]): > 64 µg/mL; MIC (C. albicans ATCC 14053): > 64 µg/mL
